The record followed here is PubChem BioAssay AID1963977 (Molecular Pharmacology Branch, DTP, NCI, 2024).

The assay has as its system 624824-186-R-J3-PDC multicell spheroids, viability. Description: Anticancer human tumor 624824-186-R-J3-PDC patient-derived colon adenocarcinoma cell line growth inhibition [PI3K]. The note with it: for viability, T/C: stronger effect = lower value. In short, it runs like this: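 We assembled tumor spheroids that included a stromal compartment of HUVEC and MSCs, then exposed them to targeted agents alone and together with PI3K pathway inhibitors. Concentration series descended by half-log from clinically achievable Cmax levels. Viability served as the endpoint.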

The mark [1] stands for this setting: curve of first compound, second compound 0.0316 µM.
The mark [2] stands for this setting: curve of first compound, second compound 0.1 µM.
Where [3] appears, read: curve of first compound, second compound 0.316 µM.
[4] abbreviates: curve of first compound, second compound 1 µM.
Where [5] appears, read: curve of first compound, second compound 3.16 µM.
Setting [6] is: curve of first compound, second compound 10 µM.
Setting [7] is: second compound 0.0316 µM, first compound 0.0316 µM.
Setting [8] is: second compound 0.0316 µM, first compound 0.1 µM.
Setting [9] is: second compound 0.1 µM, first compound 0.0316 µM.
The mark [10] stands for this setting: second compound 0.1 µM, first compound 0.1 µM.
The mark [11] stands for this setting: second compound 0.316 µM, first compound 0.0316 µM.
The mark [12] stands for this setting: second compound 0.316 µM, first compound 0.1 µM.
Setting [13] is: second compound 1 µM, first compound 0.0316 µM.
[14] abbreviates: second compound 1 µM, first compound 0.1 µM.
Setting [15] is: second compound 3.16 µM, first compound 0.0316 µM.
Where [16] appears, read: second compound 3.16 µM, first compound 0.1 µM.
[17] abbreviates: second compound 10 µM, first compound 0.0316 µM.
The mark [18] stands for this setting: second compound 10 µM, first compound 0.1 µM.

Structures are written as SMILES. “And” between values parts separate entries of the source, which are not always exact repeats. Identical values can stand only once. Bounds are passed on as bounds.
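Note: spheroids exposed to agents for seven days before luminescence read.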
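Throughout, for viability, T/C: luminescent signal used as a stand-in for spheroid viability; percent viability relative to DMSO vehicle control wells taken as 100%.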

Consider `CNC(=O)c1ccc(N2C(=S)N(c3ccc(C#N)c(C(F)(F)F)c3)C(=O)C2(C)C)cc1F` + CC(Nc1ncnc2nc[nH]c12)c1cc2cccc(Cl)c2c(=O)n1-c1ccccc1, for which the 50% inhibitory concentration (IC50) (in general, the point on the concentration scale where inhibition reaches its midpoint) is above 10 µM under setting [1]; above 10 µM under setting [2]; above 10 µM under setting [3]; above 10 µM under setting [4]; above 10 µM under setting [5]; above 10 µM under setting [6]. Further, the viability, T/C (commonly the ratio of treated to control) was 107% under setting [7]; 102% under setting [8]; 110% (second compound 0.0316 µM, first compound 0.316 µM); 97.1% (second compound 0.0316 µM, first compound 1 µM); 92.8% (second compound 0.0316 µM, first compound 3.16 µM); 102% (second compound 0.0316 µM, first compound 10 µM). In addition, the viability, T/C is 97.7% under setting [9]; 101% under setting [10]; 104% (second compound 0.1 µM, first compound 0.316 µM); 108% (second compound 0.1 µM, first compound 1 µM); 106% (second compound 0.1 µM, first compound 3.16 µM); 116% (second compound 0.1 µM, first compound 10 µM). Further, the viability, T/C runs as follows: under setting [11], 96.6%; under setting [12], 93.3%; (second compound 0.316 µM, first compound 0.316 µM) 105%; (second compound 0.316 µM, first compound 1 µM) 94.2%; (second compound 0.316 µM, first compound 3.16 µM) 105%; (second compound 0.316 µM, first compound 10 µM) 117%. The viability, T/C runs as follows: under setting [13], 98.8%; under setting [14], 101%; (second compound 1 µM, first compound 0.316 µM) 107%; (second compound 1 µM, first compound 1 µM) 117%; (second compound 1 µM, first compound 3.16 µM) 104%; (second compound 1 µM, first compound 10 µM) 101%. For the same compound, the viability, T/C is 100% under setting [15]; 100% under setting [16]; 112% (second compound 3.16 µM, first compound 0.316 µM); 91.5% (second compound 3.16 µM, first compound 1 µM); 108% (second compound 3.16 µM, first compound 3.16 µM); 107% (second compound 3.16 µM, first compound 10 µM). The viability, T/C was 99.1% under setting [17]; 95.2% under setting [18]; 100% (second compound 10 µM, first compound 0.316 µM); 88.1% (second compound 10 µM, first compound 1 µM); 93.2% (second compound 10 µM, first compound 3.16 µM); 97.9% (second compound 10 µM, first compound 10 µM).
Turning to `C[C@@H](NC(=O)c1ncnc(N)c1Cl)c1ncc(C(=O)Nc2cc(C(F)(F)F)c(Cl)cn2)s1`, the viability, T/C reads like this: (compound 0.0316 µM) 103% and 100% and 120%; (compound 0.1 µM) 96.1% and 93.2% (2×); (compound 0.316 µM) 99.7% and 104% and 102%; (compound 1 µM) 99.9% and 97.9% and 107%; (compound 3.16 µM) 94.9% and 98.1% and 99.8%; (compound 10 µM) 89.5% and 97.3% and 104%. Further, where the note is “curve of compound”, the IC50 is above 10 µM.
On to `Cn1ncc(Cl)c1-c1cc(C(=O)NC(CN)Cc2cccc(F)c2)sc1Cl` (stereo unspecified), for which the viability, T/C was 104% [middle of 4 runs] (compound 0.0316 µM); 101% (2×) and 112% and 104% (compound 0.1 µM); 95.1% [middle of 4 runs] (compound 0.316 µM); 76.3% [middle of 4 runs] (compound 1 µM); 67.9% [middle of 4 runs] (compound 3.16 µM). The IC50 (curve of compound) is 8.4 µM and > 10 µM and 5.42 µM.
Consider `Cn1nccc1Nc1nccc(-c2ccn(C(CO)c3ccc(Cl)c(F)c3)c(=O)c2)n1` (stereo unspecified), for which the viability, T/C is 102% [middle of 4 runs] (compound 0.0316 µM); 95.1% [middle of 4 runs] (compound 0.1 µM); 95.9% [middle of 4 runs] (compound 0.316 µM); 80.8% [middle of 4 runs] (compound 1 µM); 69.3% [middle of 4 runs] (compound 3.16 µM); 60.9% [middle of 4 runs] (compound 10 µM). For the same compound, the concentration for half-maximal inhibition (IC50) (curve of compound) was above 10 µM.
`CCCS(=O)(=O)Nc1ccc(F)c(C(=O)c2c[nH]c3ncc(-c4ccc(Cl)cc4)cc23)c1F`: the viability, T/C (compound 0.0316 µM) was 99.1% [middle of 4 runs]; the viability, T/C (compound 0.1 µM) was 97.5% [middle of 4 runs]; the viability, T/C (compound 0.316 µM) was 102% [middle of 4 runs]; the viability, T/C (compound 1 µM) was 95.5% [middle of 4 runs]; the viability, T/C (compound 3.16 µM) is 86% [middle of 4 runs]; the viability, T/C (compound 10 µM) is 11.9% [middle of 4 runs]. Also, the IC50 (curve of compound) is 5.47 µM [middle of 4 runs].
With `CC(C)n1nc(-c2ccc3oc(N)nc3c2)c2c(N)ncnc21` + Cc1nc(NC(=O)N2CCCC2C(N)=O)sc1-c1ccnc(C(C)(C)C(F)(F)F)c1, the IC50 is, setting by setting: under setting [1], above 0.1 µM; under setting [2], 0.0984 µM; under setting [3], 0.0787 µM; under setting [4], 0.0644 µM; under setting [5], 0.0286 µM; under setting [6], 0.0155 µM. Moreover, the viability, T/C is, setting by setting: (second compound 0.0316 µM, first compound 0.000316 µM) 110%; (second compound 0.0316 µM, first compound 0.001 µM) 104%; (second compound 0.0316 µM, first compound 0.00316 µM) 112%; (second compound 0.0316 µM, first compound 0.01 µM) 99.1%; under setting [7], 91.3%; under setting [8], 53.3%. In addition, the viability, T/C by setting is: (second compound 0.1 µM, first compound 0.000316 µM) 103%; (second compound 0.1 µM, first compound 0.001 µM) 101%; (second compound 0.1 µM, first compound 0.00316 µM) 101%; (second compound 0.1 µM, first compound 0.01 µM) 110%; under setting [9], 97.8%; under setting [10], 48.9%. For the same compound, the viability, T/C (second compound 0.316 µM, first compound 0.000316 µM) was 108%; the viability, T/C (second compound 0.316 µM, first compound 0.001 µM) was 101%; the viability, T/C (second compound 0.316 µM, first compound 0.00316 µM) was 105%; the viability, T/C (second compound 0.316 µM, first compound 0.01 µM) is 100%; the viability, T/C under setting [11] was 89.2%; the viability, T/C under setting [12] is 40%. Also, the viability, T/C is, setting by setting: (second compound 1 µM, first compound 0.000316 µM) 104%; (second compound 1 µM, first compound 0.001 µM) 105%; (second compound 1 µM, first compound 0.00316 µM) 97.2%; (second compound 1 µM, first compound 0.01 µM) 91.3%; under setting [13], 77%; under setting [14], 34%. The viability, T/C (second compound 3.16 µM, first compound 0.000316 µM) was 87.3%; the viability, T/C (second compound 3.16 µM, first compound 0.001 µM) was 94.6%; the viability, T/C (second compound 3.16 µM, first compound 0.00316 µM) was 89.5%; the viability, T/C (second compound 3.16 µM, first compound 0.01 µM) is 72.9%; the viability, T/C under setting [15] is 48.5%; the viability, T/C under setting [16] was 30.4%. The viability, T/C reads like this: (second compound 10 µM, first compound 0.000316 µM) 67.5%; (second compound 10 µM, first compound 0.001 µM) 68.4%; (second compound 10 µM, first compound 0.00316 µM) 68.1%; (second compound 10 µM, first compound 0.01 µM) 52.8%; under setting [17], 42%; under setting [18], 25.7%.
